In US5523305A, “Tachykinin receptor antagonists, isoquinolones and their production” (Takeda Chemical Industries, Ltd., priority 1992, dated 1996):
Read-outs that look alike come from different tables or passages of the source.

Legend:
[1] = biological target: T1, substance P receptor from human lymphoblast cells (IM-9) (Homo sapiens, UniProt P25103); assay: Radioligand receptor binding inhibitory assay using receptor from human lymphoblast cells (IM-9) (125I-BHSP)
T1 construct: The receptor was prepared from human lymphoblast cells (IM-9); endogenous in cells; host or cells: IM-9 human lymphoblast cells
T1 sequence (P25103 whole entry): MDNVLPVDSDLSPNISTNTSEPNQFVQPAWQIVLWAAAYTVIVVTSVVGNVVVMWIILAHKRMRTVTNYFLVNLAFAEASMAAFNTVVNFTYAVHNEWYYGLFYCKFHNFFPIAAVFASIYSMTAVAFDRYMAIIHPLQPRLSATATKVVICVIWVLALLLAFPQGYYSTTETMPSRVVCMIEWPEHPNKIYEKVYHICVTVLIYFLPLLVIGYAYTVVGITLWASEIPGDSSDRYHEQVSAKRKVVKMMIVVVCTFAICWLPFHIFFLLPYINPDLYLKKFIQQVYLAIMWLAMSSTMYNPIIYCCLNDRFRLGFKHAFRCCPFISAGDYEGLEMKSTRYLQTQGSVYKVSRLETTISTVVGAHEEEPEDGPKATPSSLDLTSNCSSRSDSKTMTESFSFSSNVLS
Description: (2) Radioligand receptor binding inhibitory assay using receptor from human lymphoblast cells (IM-9)
The method of A. Margaret et al. [Molecular Pharmacology 42, 458 (1992)] was modified and used. The receptor was prepared from human lymphoblast cells (IM-9). IM-9 cells were grown in 175 cm^2 tissue culture flasks (100 ml×10) at a density approximately 2×10^5 /ml of RPMI 1640 with L-glutamine, 10% (V/V) heat inactivated fetal calf serum, penicillin (100 u/ml), and streptomycin (100 μg/ml) at 37° C. in 5%CO2 /95% air for 3 days. IM-9 cells were obtained by centrifugation at 500×g for 5 minutes at 5° C. The pellet obtained was washed once with phosphate buffer (Flow Laboratories, CAT. No. 28-103-05), homogenized using Polytron homogenizer(Kinematika, Germany) in 30 ml of 50 mM Tris-HCl buffer containing 120 mM NaCl, 5 mM KCl, 2 μg/ml phenylmethyl sufonyl fluoride, and 1 mM ethylenediamine tetra-acetic acid, and then centrifuged at 40,000×g for 20 minutes. The residue was washed twice with 30 ml of buffer described above, and preserved frozen (-80° C.).
The above specimen was suspended in a reaction buffer (50 mM Tris-HCl buffer (pH 7.4), 0.02% bovine serum albumin, 1 mM phenylmethylsulfonyl fluoride, 2 μg/ml chymostatin, 40 μg/ml bacitracin, 3 mM manganese chloride) at a protein concentration of 1.5 mg/ml and a 100 μl portion of the suspension was used in the reaction. After addition of the sample and 125I-BHSP (0.46 KBq), the reaction was conducted in 0.2 ml of reaction buffer at 25° C. for 30 minutes. The amount of nonspecific binding was determined by adding substance P at a final concentration of 2×10^-6 M. After the reaction, using a cell harvester (290PHD, Cambridge Technology, Inc., England), rapid filtration was carried out through a glass filter (GF/B, Whatman, U.S.A.) to stop the reaction. After washing three times with 250 μl of […] buffer (pH 7.4) containing 0.02% bovine serum albumin, the radioactivity remaining on the filter was measured with a gamma counter. Before use, the filter was immersed in 0.1% polyethyleneimine for 24 hours and air-dried.

[2] = biological target: T2, substance P receptor from rat forebrain (Rattus norvegicus, UniProt P14600); assay: Radioligand receptor binding inhibitory assay using receptor from rat forebrain (125I-BHSP); parameters: species or system rat (Wistar)
T2 construct: The receptor was prepared from the brain of Wistar rats (male, 8 weeks old, Charles-River); from tissue; host or cells: forebrain membranes of male Wistar rats
T2 sequence (P14600 whole entry): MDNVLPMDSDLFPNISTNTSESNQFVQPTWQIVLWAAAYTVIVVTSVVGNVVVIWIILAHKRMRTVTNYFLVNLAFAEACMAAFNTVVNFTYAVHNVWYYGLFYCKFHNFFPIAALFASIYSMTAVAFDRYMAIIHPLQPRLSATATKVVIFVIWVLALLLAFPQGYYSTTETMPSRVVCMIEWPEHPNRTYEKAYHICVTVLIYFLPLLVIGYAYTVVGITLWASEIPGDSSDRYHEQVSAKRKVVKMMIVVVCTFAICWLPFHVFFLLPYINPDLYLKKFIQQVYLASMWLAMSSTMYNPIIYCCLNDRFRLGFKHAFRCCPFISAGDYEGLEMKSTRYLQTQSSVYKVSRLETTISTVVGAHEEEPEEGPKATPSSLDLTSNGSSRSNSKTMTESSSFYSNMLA
Description: (1) Radioligand receptor binding inhibitory assay using receptor from rat forebrain The method of R. Qirion and […] (Neuropeptide 4, 325 (1984)) was modified and used. The receptor was prepared from the brain of Wistar rats (male, 8 weeks old, Charles-River). The rat was sacrificed by decapitation and the forebrain was isolated. The forebrain was homogenized in 30 ml/rat of 150 mM Tris-HCl buffer (pH 7.4) containing 120 mM sodium chloride and 5 mM potassium chloride using a Polytron homogenizer (Kinematika, Germany) and centrifuged at 40,000×G for 20 minutes. The pellet was suspended in 30 ml of 50 mM Tris-HCl buffer (pH 7.4) containing 300 mM potassium chloride and 10 mM ethylenediaminetetracetic acid and stirred gently with ice-cooling for 30 minutes. This suspension was centrifuged at 40,000×G for 20 minutes and the pellet was washed with 30 ml of 50 mM Tris-HCl buffer (pH 7.4). The receptor specimen thus obtained was preserved frozen (-80° C.). The above specimen was suspended in a reaction buffer (50 mM Tris-HCl buffer (pH 7.4), 0.02% bovine serum albumin, 1 mM phenylmethylsulfonyl fluoride, 2 μg/ml chymostatin, 40 μg/ml bacitracin, 3 mM manganese chloride) at a protein concentration of 1.5 mg/ml and a 100 μl portion of the suspension was used in the reaction. […] The amount of nonspecific binding was determined by adding substance P at a final concentration of 2×10^-6 M. After the reaction, using a cell harvester (290PHD, Cambridge Technology, Inc., England), rapid filtration was carried out through a glass filter (GF/B, Whatman, U.S.A.) to stop the reaction. After washings three times with 250 μl of 50 mM Tris-HCl buffer (pH 7.4) containing 0.02% bovine serum albumin, the radioactivity remaining on the filter was measured with a gamma counter. Before use, the filter was immersed in 0.1% polyethyleneimine for 24 hours and air-dried.

[3] = read-out: concentration necessary to cause 50% inhibition [IC50], human lymphoblast IM-9 cell receptor, 25° C., 30 minutes, pH 7.4

IC50 ([2]; 25° C., 30 minutes, pH 7.4) [nM] | Compound | further results
64 | Cc1cc2c(-c3ccccc3)c(NC(=O)NCc3ccco3)n(C)c(=O)c2cc1C [Example 12, N-(2-Furfuryl)-N'-(1,2-dihydro-2,6,7-trimethyl-1-oxo-4-phenylisoquinolin-3-yl)urea] | 
42 | Cc1cc2c(-c3ccccc3)c(NC(=O)NCc3ccccn3)n(C)c(=O)c2cc1C [Example 13, N-(1,2-Dihydro-2,6,7-trimethyl-1-oxo-4-phenylisoquinolin-3-yl)-N'-(2-pyridinemethyl)urea] | 
76 | Cc1cc2c(-c3ccccc3)c(NC(=O)NCC3CCCCC3)n(C)c(=O)c2cc1C [Example 15, N-Cyclohexylmethyl-N'-(1,2-dihydro-2,6,7-trimethyl-1-oxo-4-phenylisoquinolin-3-yl)urea] | 
14 | Cc1cc2c(-c3ccccc3)c(NC(=O)NCc3ccccc3C)n(C)c(=O)c2cc1C [Example 18, N-(1,2-Dihydro-2,6,7-trimethyl-1-oxo-4-phenylisoquinolin-3-yl)-N'-(2-methylbenzyl)urea] | 

Continued, compound first:

Compound | IC50 ([2]; 25° C., 30 minutes, pH 7.4) [nM] | further results
Cc1cc2c(-c3ccccc3)c(NC(=O)N(C)Cc3ccccc3)n(C)c(=O)c2cc1C [Example 1, N-Benzyl-N'-(1,2-dihydro-2,6,7-trimethyl-1-oxo-4-phenylisoquinolin-3-yl)-N-methylurea] |  | IC50 [1, 3]: 16 nM
Cc1cc2c(-c3ccccc3)c(NC(=O)NCc3ccccc3)n(C)c(=O)c2cc1C [Example 2, N-Benzyl-N'-(1,2-dihydro-2,6,7-trimethyl-1-oxo-4-phenylisoquinolin-3-yl)ure] | 19 | 
COc1ccccc1CN(C)C(=O)Nc1c(-c2ccccc2)c2cc(C)c(C)cc2c(=O)n1C [Example 3, N-(1,2-Dihydro-2,6,7-trimethyl-1-oxo-4-phenylisoquinolin-3-yl)-N'-(2-methoxybenzyl)-N'-methylurea] |  | IC50 [1, 3]: 23 nM
Cc1cc2c(-c3ccccc3)c(NC(=O)NCc3cccs3)n(C)c(=O)c2cc1C [Example 14, N-(1,2-Dihydro-2,6,7-trimethyl-1-oxo-4-Phenylisoquinolin-3-yl)-N'-(2-thiophenemethyl)urea] | 56 | 
Cc1ccc(CNC(=O)Nc2c(-c3ccccc3)c3cc(C)c(C)cc3c(=O)n2C)cc1 [Example 16, N-(1,2-Dihydro-2,6,7-trimethyl-1-oxo-4-phenylisoquinolin-3-yl)-N'-(4-methylbenzyl)urea] | 11 | 
Cc1cccc(CNC(=O)Nc2c(-c3ccccc3)c3cc(C)c(C)cc3c(=O)n2C)c1 [Example 17, N-(1,2-Dihydro-2,6,7-trimethyl-1-oxo-4-phenylisoquinolin-3-yl)-N'-(3-methylbenzyl)urea] |  | IC50 ([2]; read-out: concentration necessary to cause 50% inhibition [IC50], 25° C., 30 minutes, pH 7.4): 18 nM
CCn1c(NC(=O)NCc2ccccc2)c(-c2ccccc2)c2cc(C)c(C)cc2c1=O [Example 19, N-Benzyl-N'-(2-ethyl-1,2-dihydro-6,7-dimethyl-1-oxo-4-phenylisoquinolin-3-yl)urea] | 32 | 
COc1ccccc1-c1c(NC(=O)NCc2ccccc2)n(C)c(=O)c2ccccc12 [Example 24, N-Benzyl-N'-[1,2-dihydro-4-(2-methoxyphenyl)-2-methyl-1-oxoisoquinolin-3-yl]urea] | 100 | 
Cc1cc2c(-c3ccccc3)c(NC(=O)NCc3ccccc3Cl)n(C)c(=O)c2cc1C [Example 42, N-(2-Chlorobenzyl)-N'-(1,2-dihydro-2,6,7-trimethyl-1-oxo-4-phenylisoquinolin-3-yl)urea] |  | IC50 ([1]; human lymphoblast IM-9 cell receptor, 25° C., 30 minutes, pH 7.4): 76 nM
Cc1cc2c(-c3ccccc3)c(NC(=O)N(C)Cc3ccccc3Cl)n(C)c(=O)c2cc1C [Example 52] |  | IC50 [1, 3]: 4.2 nM
CCN(Cc1ccccc1)C(=O)Nc1c(-c2ccccc2)c2cc(C)c(C)cc2c(=O)n1C [Example 53, N-Benzyl-N-ethyl-N'-(1,2-dihydro-2,6,7-trimethyl-1-oxo-4-phenylisoquinolin-3-yl)urea] |  | IC50 [1, 3]: 66 nM
